Tests used:
Type in all cases: functional, Homo sapiens
Set-up in all cases: dose or concentration left out as unconfirmed
Colon cancer organoid [1] = assay: Optimized Dual-Glo assay to identify co-culture induced drug vulnerabilities using donated chemical probes and chemogenomics kinase set in O20 CRC organoid and F20 CAF mono and co-culture. […] Cell viability is reported both mono and co-culture models.
Colon cancer organoid [2] = assay: Optimized Dual-Glo assay to identify co-culture induced drug vulnerabilities using donated chemical probes and chemogenomics kinase set in O06 CRC organoid and F06 CAF mono and co-culture. […] Cell viability is reported both mono and co-culture models.
Colon cancer organoid [3] = assay: Optimized Dual-Glo assay to identify co-culture induced drug vulnerabilities using donated chemical probes and chemogenomics kinase set in O14 CRC organoid and F14 CAF mono and co-culture. […] Cell viability is reported both mono and co-culture models.
[4] = Culture type Co-Culture, Transduced with Lucferase2-P2A-EGFP lentivirus
[5] = Culture type Co-Culture, Transduced with Renilla-dsRed lentivirus
[6] = Culture type Mono-Culture, Transduced with Lucferase2-P2A-EGFP lentivirus
[7] = Culture type Mono-Culture, Transduced with Renilla-dsRed lentivirus

Row | Compound | Cell Viability (Colon cancer organoid [1]; [4]) | Cell Viability (Colon cancer organoid [1]; [5]) | Cell Viability (Colon cancer organoid [1]; [6]) | Cell Viability (Colon cancer organoid [1]; [7]) | Cell Viability (Colon cancer organoid [2]; [4]) | Cell Viability (Colon cancer organoid [2]; [5]) | Cell Viability (Colon cancer organoid [2]; [6]) | Cell Viability (Colon cancer organoid [2]; [7]) | Cell Viability (Colon cancer organoid [3]; [4]) | Cell Viability (Colon cancer organoid [3]; [5]) | Cell Viability (Colon cancer organoid [3]; [6]) | Cell Viability (Colon cancer organoid [3]; [7])
1 | Cl.Cl.Cl.c1ccc(N2CCN(Cc3nc4ccccc4[nH]3)CC2)nc1 | 41.4322% | 124.541% | 78.9868% | 88.4978% | 145.739% | 162.508% | 117.947% | 106.828% | 78.8417% | 120.535% | 87.6489% | 99.3304%
2 | CCCOc1ccn2c(C(C)=O)cc(-c3cccc(OC)c3)c2c1 | 76.4747% | 110.044% | 113.084% | 103.998% | 110.241% | 146.669% | 131.845% | 119.651% | 84.3946% | 120.115% | 124.987% | 98.1469%
3 | CO[C@H]1CNC[C@@H](OCC2CCC(F)(F)CC2)[C@@H]1Nc1ncc(-c2cncc(C)c2)c2cc(C)c(=O)[nH]c12 | 171.391% | 122.949% | 125.457% | 102.001% | 95.0954% | 138.476% | 98.6849% | 128.396% | 95.7966% | 88.7201% | 127.619% | 100.555%
4 | Cl.O=C(O)c1cc(-c2ccc(C3CCNCC3)cc2)c2ccc(-c3ccc(C(F)(F)F)cc3)cc2c1 | 105.826% | 101.384% | 71.4178% | 87.2658% | 107.895% | 117.47% | 95.8495% | 93.2112% | 74.9682% | 122.124% | 85.098% | 99.5367%
5 | C[C@@H](c1cccc(CN)c1)n1cc(Cl)cc(C(N)=O)c1=N.Cl | 85.1583% | 93.567% | 85.5992% | 85.7646% | 104.535% | 114.984% | 142.418% | 104.758% | 79.0577% | 134.768% | 97.3624% | 96.7861%
6 | O=C(NCc1ccccc1)c1ccc(S(=O)(=O)NCc2ccccc2)cc1 | 89.1581% | 96.8328% | 97.877% | 137.118% | 120.089% | 107.944% | 199.391% | 148.571% | 77.1762% | 97.8485% | 125.216% | 99.6349%
7 | CCOC(=O)CCNc1cc(N2CCc3ccccc3CC2)nc(-c2cccnc2)n1 | 102.18% | 131.422% | 61.9891% | 99.1525% | 130.773% | 124.082% | 90.274% | 111.34% | 62.9469% | 109.109% | 99.8423% | 94.8955%
8 | C[C@H]1CCCN1Cc1nc2cc(NC(=O)c3ccc4cnccc4c3)ccc2[nH]1 | 98.572% | 149.477% | 83.1729% | 94.0651% | 122.515% | 131.721% | 188.522% | 107.295% | 60.7566% | 146.013% | 100.332% | 105.964%
9 | Cc1cc(C)cc([C@@H]2c3cc(C)ccc3NC(=O)CN2C(=O)c2ccc(Br)s2)c1 | 135.921% | 541.943% | 109.076% | 515.86% | 107.168% | 464.523% | 138.593% | 545.831% | 88.8372% | 581.73% | 126.733% | 467.801%
10 | Cc1cc(C)cc([C@H]2c3cc(C)ccc3NC(=O)CN2C(=O)c2ccc(Br)s2)c1 | 134.503% | 98.7461% | 124.059% | 79.4319% | 94.0417% | 115.465% | 159.24% | 104.104% | 84.3524% | 110.086% | 124.101% | 91.0337%
11 | CC(=O)c1cc(-c2ccccc2OCC2CC2)c2ncccn12 | 90.8424% | 121.201% | 99.1369% | 90.8457% | 107.249% | 181.775% | 93.2808% | 95.3402% | 80.3991% | 93.1948% | 108.194% | 100.736%
12 | Cc1cc(CN)cc(C)c1-c1ncn(C)c1-c1cncn1C | 127.582% | 117.48% | 113.288% | 98.6435% | 121.461% | 141.638% | 159.088% | 144.43% | 82.5441% | 115.965% | 119.104% | 86.3829%
13 | CCNC(=O)c1cc2c(N3CCOCC3C)ccnc2[nH]1 (stereo not drawn) | 144.452% | 100.256% | 103.659% | 101.624% | 131.632% | 146.353% | 109.161% | 91.669% | 86.1024% | 100.89% | 87.7409% | 81.9796%
14 | Cl.Cn1cncc1[C@](O)(COc1ccc(C#N)cc1-c1ccc(OC(F)(F)F)cc1)c1ccc(C#N)cc1 | 15.3114% | 150.357% | 17.164% | 65.8997% | 31.9269% | 197.169% | 11.7395% | 58.9843% | 26.9606% | 99.4366% | 53.0011% | 61.9663%

Reference: ChEMBL document CHEMBL5674860, “Optimized Dual-Glo Assay to identify co-culture-induced drug vulnerabilities in 3D CRC models” (2024)
